Entries after “also recorded” stand apart in the source; their conditions may differ.

In one series the test system is HEK-293 cells. Nature of the series: 3H-labeled amino acid uptake selectivity panel. It is filed as cell-based, human. Conditions: 3H-leucine, HEK293. The protocol: Live-cell amino acid uptake assays using HEK293 cells were carried out in 96-well plates (CulturPlate-96, Perkin Elmer). 96-well plates were coated with poly-D-lysine prior to the assay. Cells were plated at a density of 35,000 cells per well 24 h prior to carrying out the assay. Each set of conditions was replicated at least three times, technically and biologically. […] For ASCT2-mediated ^3H-glutamine uptake assays, 5 mM of the system-L inhibitor 2-amino-2-norbornanecarboxylic acid (BCH) was added and the assay buffer was adjusted to pH 6.0. For selectivity studies, no BCH was added and the assay was conducted at pH 7.4. Following the incubation period, the ^3H-glutamine/inhibitor was removed and the cells were washed three times with assay buffer. The cells were then lysed by the addition of 50 μL of 1 M NaOH. For reading, 150 μL of scintillation fluid (Microscint 40, Perkin Elmer) was added and the plates were counted on a scintillation counter (Topcount, Perkin Elmer). Fifty percent inhibitory concentrations (IC50) were calculated using GraphPad Prism version 6 for Mac OS X, GraphPad Software, San Diego Calif. USA, www.graphpad.com. Error is reported as standard deviation (SD).

Series [1] relates to activated CD8-positive T-cells. Nature of the series: Viability and activation of CD8-positive T-cells. It is filed as cell-based, mouse. Conditions: 96 hrs. The method, then:
CD8+ cells were isolated from the spleens of 8-12 week old C57BL6 mice on standard chow from Jackson Labs maintained under IACUC approved protocols. CD8+ cells were stained using the proliferative dye Cell Trace Violet (LifeTech) before stimulation as per manufacturer's protocol. Cells were stimulated on 5 ug/mL anti-CD3/CD28-coated plates in media containing IL-2 (‘activated’, 10 ng/mL), or in tissue-culture treated plates in media containing IL-7 (‘naive’, 1 ng/mL) for up to 7 days. Cells were removed at each day described for viability, cell counts, proliferation, and surface markers of activation. Cell surface markers used were CD62L-FITC and APC, CD44-PECy5 and CD25-PE. All data were acquired in triplicate on a MacsQuant Analyzer (Miltenyi Biotec) and analyzed using FlowJo V10 (TreeStar software).

Series [2] concerns pERK in HCC1806 and HT29 cells. Nature of the series: AlphaScreen SureFire pERK assay. It is filed as cell-based, human. Conditions: 48 h. The method, then: Detection of activated ERK in cell lysates was enabled by the AlphaScreen SureFire ERK assay (Perkin Elmer) according to the manufacturers protocol. Cells were plated in 96-well plates for 24 hours prior to the assay.
The next series relates to HT29 and HCT-116 cells. Nature of the series: Cell viability with or without chloroquine. It is filed as cell-based, human. Conditions: combined with chloroquine (10 μM), 48 h. The protocol:
Viability was evaluated using a commercially available chemiluminescent reagents (CellTiter-Glo, Promega Corp. G7572; MultiTox Glo, Promega Corp. G9270) in 96-well plate format according to the manufacturers protocol. […] Subsequently, CellTiter-Glo reagent was added and the plates were read using a plate reader (BioTek Synergy 4) with standard settings. Each set of conditions was replicated at least three times, technically and biologically. Error is reported as standard deviation (SD). The sulforhodamine B assay was run analogously to the above assays as previously described^19.

The subject of series [3] is HT29 (BRAF V600E) cell-line xenografts. Nature of the series: HT29 xenograft chronic exposure study. Conditions: 75 mg/kg per day, 21 days. It is filed as in vivo, mouse. The method, then:
Tissues were sectioned (5 μm thickness) and stained for pS6 (Cell Signaling, #4858) and caspase 3 (Cell Signaling #9661). Tissue slides were imaged at 20× magnification.
For in vivo studies, cell-line xenograft tumors were propagated in 6-week old, female athymic nude mice from immortalized cell lines. For HCC-1806 (10×10^6 cells), HCT-116 (5×10^6), and HT29 (10×10^6) cells were injected. Palpable tumors were typically visible within 2-3 weeks. For imaging studies (HCC-1806), tumors were propagated to approximately 500 mm^3. For treatment studies (HCT-116, HT29) tumors were propagated to approximately 200 mm^3 prior to therapy and were randomly assigned into treated and untreated cohorts. For generating the PDX, primary tumor tissue was obtained form a patient at Vanderbilt University Medical Center under an IRB approved protocol. The tumor tissue was genotyped within the VANTAGE core facility. Xenograft was generated as previously described 41. Briefly, tumor tissues were sectioned into approximately 125 cubic millimeter pieces then implanted subcutaneously without further manipulation. […] Tumor volumes were measured manually using calipers every third day and quantified using the formula V=W·L·(H/2).

For another series, the system named is Colo-205 xenografts. Nature of the series: Colo-205 xenograft 10-day exposure study. It is filed as in vivo, mouse. Conditions: 75 mg/kg per day, 10 days.
Series [4] is described as follows: Tolerability in chronic exposure studies (body mass, liver pathology). It is filed as in vivo, mouse. Conditions: 75 mg/kg per day, 21 days, vs vehicle.

On to `Cc1cccc(COc2ccccc2CN(CCC(N)C(=O)O)Cc2ccccc2OCc2cccc(C)c2)c1` (stereo not shown) [Compound V-9302], for which the “inhibition of leucine uptake” value in the series with HEK-293 cells is recorded as “capable of inhibiting the uptake of another ASCT2 substrate, leucine”. The T-cell activation entry in series [1] (CD44 expression) was “not impaired”. In addition, the T-cell viability entry in series [1] (in vitro, relative to vehicle) was “unchanged relative to vehicle”. In addition, the “pERK (independent biochemical assay)” value in series [2] is given as “statistically significant, concentration-dependent decrease in pERK”. Moreover, the “cell viability, combination” value in the series with HT29 and HCT-116 cells was “further decreased cell viability”. For the same molecule, in series [3] (IHC), the “cleaved caspase 3 in tumor tissue” value is given as “elevated levels of cleaved caspase 3” and the “pS6 in tumor tissue” value was “significantly decreased pS6”. Further, the tumor growth result in series [3] (vs vehicle) was “prevented tumor growth”. In addition, in the series with Colo-205 xenografts, the “tumor BRDU uptake” value is on record as “decreased tumor BRDU uptake”; the tumor growth entry is “tumor growth arrest”; the tumor response markers entry was “elevated LC3B, cleaved caspase 3 and decreased pAKT (Ser473 and Thr308), as well as increased cleaved PARP and decreased and pERK”. Moreover, in series [4] (athymic nude mice, H&E), the liver pathology entry is given as “similar; also recorded: no discernible difference”. Further, the weight loss result in series [4] (chronic exposure) is “no significant weight loss”.

Source of the values: patent publication US10793514B2, “Glutamine transport inhibitors and methods for treating cancer” (Vanderbilt University, priority 2016, dated 2020).
